Measurements as given in ChEMBL document CHEMBL3621061 (J Med Chem, 2015).

Columns and labels:
[1] = Displacement of [3H]histamine from monkey recombinant histamine H4 receptor; set-up: species or system Macaca mulatta
[2] = Displacement of [3H]histamine from dog recombinant histamine H4 receptor; set-up: species or system Canis lupus familiaris
[3] = Displacement of [3H]histamine from dog histamine H4 receptor expressed in HEK293T cells; assay type: cell-based, Canis lupus familiaris; conditions: hek-293t
[4] = Displacement of [3H]histamine from monkey histamine H4 receptor expressed in HEK293T cells; assay type: cell-based, Macaca mulatta; conditions: hek-293t
[5] = target: T1, Histamine H4 receptor (Cavia porcellus, UniProt Q91ZY3)
T1 sequence (Q91ZY3 whole entry): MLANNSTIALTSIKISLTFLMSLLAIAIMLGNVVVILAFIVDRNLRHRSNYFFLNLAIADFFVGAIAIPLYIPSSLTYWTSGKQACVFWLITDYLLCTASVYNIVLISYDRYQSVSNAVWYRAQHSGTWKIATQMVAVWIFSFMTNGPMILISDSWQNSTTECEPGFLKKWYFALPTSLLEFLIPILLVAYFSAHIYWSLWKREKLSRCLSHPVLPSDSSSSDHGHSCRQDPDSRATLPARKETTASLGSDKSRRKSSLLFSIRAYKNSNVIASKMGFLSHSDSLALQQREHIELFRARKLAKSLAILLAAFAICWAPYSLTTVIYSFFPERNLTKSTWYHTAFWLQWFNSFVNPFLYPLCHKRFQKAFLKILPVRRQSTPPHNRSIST

## CC(C)c1cc(N2CC[C@@H](N)C2)nc(N)n1 [JNJ-39758979]
[1]
  Ki: 25 nM
[2]
  Ki: > 10000 nM

## CN[C@@H]1CCN(c2cc(NCC3CC3)nc(N)n2)C1 [ADRIFORANT]
[3]
  pKi: 5.79
[4]
  pKi: 7.81

## NCCc1c[nH]cn1 [HISTAMINE]
[5]
  Ki: 6 nM
